Reference: paper PMC11979685, “Synthesis of Derivatives of the Antibiotic Albicidin: The N‐Terminal Fragment as Key to Control Potency and Resistance Mediated by the Binding Protein AlbA” (Chemistry (Weinheim an Der Bergstrasse, Germany), 2025)
≈ marks a conversion by molar mass, not a printed value.

What was measured:
[1] = test system: Micrococcus luteus DSM 1790; test: MIC determination (broth microdilution); format: cell-based; details: DSM1790, read-out: MIC M. luteus
Method: (§1) After completing the syntheses, the antibacterial activity of A‐variations 4–24 was assessed by determination of MIC values against a basic set of gram‐negative and gram‐positive bacteria (Table 1). The monocyclic derivatives 4–8 featuring a cyano‐, trifluoromethyl‐, methoxy‐ and fluoro‐ substituent in para‐position were very active against the gram–negative E. coli and S. typhimurium strains with MIC values in the same range as 3rd Gen albicidin 3 or ciprofloxacin which is the gold standard for gyrase inhibitors. […] These findings are in agreement with previous studies showing good activities for cyano, trifluoromethyl, methoxy and fluoro substituents in the para‐position of different aromatic rings in the building block A.[12, 13] The activity of the monocyclic derivatives 4–8 against the gram‐positive strains B. subtilis and M. luteus were similar but slightly less pronounced compared to the lead structure 3.
(§2) 1.1 Determination of Minimal Inhibitory Concentrations (MIC)
(§3) Minimal inhibitory concentration (MIC) against selected bacterial strains values were determined according to the ninth edition of the Approved Standard M07-A9.[1] 20 μL of cryo stocks of bacterial strains were suspended in 20 mL LB medium (Lysogeny broth: 10 g/L peptone, 5 g/L yeast extract, 5 g/L NaCl). Following incubation overnight at 37°C, 200 rpm, the test inoculum was adjusted by 0.5 McFarland Standard in cation adjusted Mueller-Hinton broth (BBLTM Mueller-Hinton Broth II, Becton, Dickinson and Company, New Jersey, USA) to approximately 1x10^6 CFU mL-1. 95 μL of the bacterial inoculum were applied per well of a 96-well plate. Albicidin and albicidin derivatives 3−24 were dissolved in DMSO (100%) to an initial concentration of 2560 μg/mL and serially diluted in DMSO (100%). Initial solution and serial dilutions of Ciprofloxacin were prepared in 0.1 N HCL, respectively. 5 μL of each antibiotic dilution were added to the microdilution tray to reach albicidin concentrations of 128 μg/mL to 0.016 μg/mL per well. One row of each well plate served as a growth control without antibiotic substances and another row of the microdilution tray served as sterility control (only MHB II - media). The antimicrobial effect of the solvent (DMSO) was tested by adding 5 μL DMSO to several wells. Purity check and cell titer control were performed according to International S tandard M07-A9 on Mueller-Hinton II Agar (Mueller Hinton II Broth, 15 g/L agar-agar). Both microdilution trays and agar plates were incubated at 30−37°C for 16 h and subsequently analyzed for growth inhibition by naked eye. The following primary panel of microorganisms were purchased from German Collection of Microorganisms and Cell Cultures (DSMZ):
(§4) Escherichia coli DSM 1116
(§5) Micrococcus luteus DSM 1790
(§6) Mycobacterium phlei DSM 750
(§7) Salmonella typhimurium TA100 was kindly provided by Prof. Dr. Vera Meyer (Technische Universität Berlin). […]
(§8) was purchased as part of the single gene knockout library of E. coli K12 BW25113 (Keio collection) from Horizon Discovery group plc (Cambridge, UK).

E. coli BW25113 = test: MIC determination (broth microdilution); format: cell-based; details: Escherichia coli, BW25113; read-out: MIC E. coli BW25113
Method: as §1, §2, §3, §4, §5, §6, §7, §8

[2] = test system: Mycobacterium phlei DSM 750; test: MIC determination (broth microdilution); format: cell-based; details: Mycolicibacterium phlei, DSM750; read-out: MIC M. phlei
Method: as §1, §2, §3, §4, §5, §6, §7, §8

E. coli DSM1116 = test: MIC determination (broth microdilution); format: cell-based; details: Escherichia coli, DSM1116; read-out: MIC E. coli DSM1116
Method: as §1, §2, §3, §4, §5, §6, §7, §8

[3] = test system: Salmonella typhimurium TA100; test: MIC determination (broth microdilution); format: cell-based; details: Salmonella enterica, read-out: MIC S. typh.
Method: as §1, §2, §3, §4, §5, §6, §7, §8

Bacillus subtilis DSM 10 = test: MIC determination (broth microdilution); format: cell-based; details: DSM10, read-out: MIC B. sub.
Method: as §1, §2, §3, §4, §5, §6, §7, §8

E. coli = test: MIC against E. coli in presence of 50 % human serum; format: cell-based; details: Escherichia coli; E. coli in presence of 50 % human serum; read-out: MICEc 50%HS
[4] = Reverse-phase HPLC retention time as estimate of lipophilicity; format: physicochemical; details: indicator of lipophilicity
Description: As mentioned before, albicidin 1 is a rather hydrophobic compound and improving its aqueous solubility is desirable. The lipophilicity of drug molecules is commonly characterized by the octanol/water partition coefficient (logP). An alternative approach relies on the correlation between lipophilicity and the retention time (Rt) on a reverse‐phase HPLC column.[31] This approach works well if structurally related compounds are compared as is the case for this SAR study. Rt was thus used to estimate the hydrophilicity of albicidin 1 and its derivatives 2–24 (Table 1).[32]

E. coli DNA gyrase = E. coli DNA gyrase (Escherichia coli, UniProt P0AES4); test: E. coli gyrase DNA cleavage assay; format: biochemical; set-up: key to Gyrase inhibition strong+ / weak −: + strong inhibition; − weak inhibition in comparison to compound 16; details: for Gyrase inhibition strong+ / weak −: qualitative DNA cleavage assay at 1 μM and 10 μM, in comparison to compound 16; for CC50: E. coli gyrase DNA cleavage, read-out: CC50 (concentration at half-maximum cleavage)
Method: The target activity of the synthesized derivatives was investigated using a DNA cleavage assay with purified and enzymatically active E. coli DNA gyrase[8] (see SI). In this assay, albicidin‐stabilized complexes of gyrase and plasmid DNA are trapped, and subsequently denatured and deproteinated to reveal DNA linearized by gyrase. […] For the best performing compounds, which were able to fully stabilize the cleavage complex at a concentration of 1 μM, the concentrations at half‐maximum cleavage (CC50) were determined (Figure 3).
1.2 Escherichia coli Gyrase Cleavage Inhibition Assay
E. coli gyrase cleavage assays were executed by setting up a master mix including 0.25 µg relaxed plasmid (pBR322) in 35 mM Tris-HCl (pH 7.5), 24 mM KCl, 4 mM MgCl2, 2 mM dithithreitol (DTT), 1.8 mM spermidine, 1 mM ATP, 6.5% (wt/vol) glycerol and 0.1 mg/ml bovine serum albumin per reaction.
Of this stock solution, 13.2 µL was aliquoted for each reaction into 1.5 mL Eppendorf tubes and supplemented with 0.3 µL of the appropriate compound dilution or DMSO with a […] DMSO concentration of 2% per reaction. The reactions were started with 1.5 µL of 50 nM (pre-screening) or 40 nM (IC50 determinations) wt E. coli gyrase in dilution buffer (50 mM Tris-HCl (pH 7.5), 100 mM KCl, 2 mM DTT, 1 mM EDTA, and 50% (wt/vol) glycerol) for a […] volume of 15 µL. Reactions were incubated at 37°C for 30 minutes before addition of 1.5 µL 0.2% (wt/vol) SDS and 0.75 µL proteinase K (0.2 mg/mL) and further incubation at 37°C for 30 minutes to trap cleavage complexes. Reactions were stopped with 15 µL chloroform:isoamyl alcohol (24: 1 v/v) and 15 µL of STEB (40% (wt/vol) sucrose, […] Tris-Cl pH 8, 10 mM EDTA, 0.5 mg/mL bromophenol blue). After brief vortexing and centrifugation at 2,300g for 5 min, 15 µL of the aqueous phase was loaded onto 1% (wt/vol) agarose in TAE (Tris-acetate […] and EDTA […]) gels supplemented with 10 µg/mL ethidium bromide.
The gels were run at 85 V for 2 hours.
DNA was visualized (602/50, UV Trans, auto optimal exposure) with a ChemiDoc MP (Bio-Rad Laboratories Inc., equipped with ImageLab Touch Software v2.0.0.27) and the percentage of cleaved DNA relative to the total amount of DNA per lane was determined with ImageJ software.[2] IC50 curves were generated in GraphPad Prism (v10.0.0) using the non-linear regression curve fit variable slope with four parameters and least squares regression.

E. coli DSM 1116 = test: Qualitative growth inhibition assay in presence of AlbAS; format: cell-based, Escherichia coli
Method: Finally, we investigated if synthetic variations of building block A are able to evade the effects of the resistance protein AlbA. Therefore, we carried out a qualitative growth inhibition assay with derivatives 4–24 in presence of an equimolar amount of purified AlbAS. After incubation of the cultures overnight, the growth of the bacteria was evaluated. The ability of AlbAS to sufficiently sequester an albicidin derivative from the supernatant allowed E. coli cells to accumulate in a visible cell pellet. Second, we performed a quantitative transcription‐activation reporter assay[22] to assess transcriptional regulation by AlbAL. The promoter sequence pAlbA was inserted into a reporter vector that encodes the ilux luminescence cassette.[22] The luminescence signals elicited by ligand binding of synthetic variations to AlbAL was compared and normalized to the signal induced by 2nd Gen albicidin 2 and are hereby referred to as relative transcription activation (TA^%). The combination of both assays prompted us to categorize the experimental outcomes (Figure 4) in four groups:
Figure 4 Characterization of AlbA resistance against derivatives 2, 4–24. GIA: Qualitative growth inhibition assay against E. coli DSM 1116. (−): Derivative unable to inhibit the growth of E. coli in presence of AlbAS. (+): Derivative inhibits growth of E. coli in presence of AlbAS. […] For details see SI Figure 9. Transcription activation (TA) assay: luminescence elicited by 2nd Gen albicidin 2 from the TA assay was normalized to 100 % and the luminescence signal of tested derivatives provided: relative luminescence [%]=luminescence [derivative]/luminescence [2]×100 %. Green bars indicate low relative luminescence (<40 %) and red bars indicate high relative luminescence (>50 %). Error bars show the standard deviations of triplicate measurements. TEXT PRINTED IN THE PICTURE: 2: E. coli inhibition +AlbA: − | 4: E. coli inhibition +AlbA: + | 9: E. coli inhibition +AlbA: + | 11: E. coli inhibition +AlbA: + | 12: E. coli inhibition +AlbA: + | 13: E. coli inhibition +AlbA: ~ | 14: E. coli inhibition +AlbA: − | 16: E. coli inhibition +AlbA: − | 17: E. coli inhibition +AlbA: − | 18: E. coli inhibition +AlbA: − | 19: E. coli inhibition +AlbA: − | 20: E. coli inhibition +AlbA: + | 21: E. coli inhibition +AlbA: − | 22: E. coli inhibition +AlbA: − | 23: E. coli inhibition +AlbA: − | 24: E. coli inhibition +AlbA: − […]
1.3 Resistance assessment against AlbA
E. coli strain DSM 1116 was used for all susceptibility testing. E. coli BL21 Star (DE3) cells (Invitrogen) were used for protein expression. LB medium (Lysogeny broth: 10 g/L peptone, 5 g/L yeast extract, 5 g/L NaCl) was used as broth or in agar plates for all experiments. Incubation steps took place at 37°C and 180 rpm shaking if not stated otherwise. Throughout the study, 2nd Gen albicidin 2 was used as albicidin standard due to its better stability, availability and similar activity compared to natural albicidin in presence of resistance factors.[3,4]
AlbA expression and purification
N-terminally His-tagged AlbA was expressed using a pET28a vector as described previously.[5] In brief, E. coli BL21(DE3) cells were transformed with pET28-AlbA plasmid and grown in LB medium with kanamycin. LB broth supplemented with 50 µg/mL kanamycin was inoculated from over-night cultures and grown at 37°C until an OD600 of 0.6 was reached. After induction with 0.2 mM isopropyl β-D-1-thiogalactopyranoside (IPTG) the proteins were expressed at 18°C for 20 h. The cells were harvested by centrifugation (4,000 x G, 20 min), resuspended in lysis buffer (50 mM Tris, pH 8.0, 500 mM NaCl, 10% glycerol) and processed in a cell disruptor (Constant Systems Ltd) at 25 kPsi before centrifugation at 50,000 x G, at 4°C for 45 min. The lysate was incubated with Pure Cube Ni-NTA agarose (Cube Biotech, Germany) at 4°C for 20 min while shaking. The slurry was transferred to empty gravity-flow […]

Sequence of E. coli DNA gyrase (P0AES4 whole entry): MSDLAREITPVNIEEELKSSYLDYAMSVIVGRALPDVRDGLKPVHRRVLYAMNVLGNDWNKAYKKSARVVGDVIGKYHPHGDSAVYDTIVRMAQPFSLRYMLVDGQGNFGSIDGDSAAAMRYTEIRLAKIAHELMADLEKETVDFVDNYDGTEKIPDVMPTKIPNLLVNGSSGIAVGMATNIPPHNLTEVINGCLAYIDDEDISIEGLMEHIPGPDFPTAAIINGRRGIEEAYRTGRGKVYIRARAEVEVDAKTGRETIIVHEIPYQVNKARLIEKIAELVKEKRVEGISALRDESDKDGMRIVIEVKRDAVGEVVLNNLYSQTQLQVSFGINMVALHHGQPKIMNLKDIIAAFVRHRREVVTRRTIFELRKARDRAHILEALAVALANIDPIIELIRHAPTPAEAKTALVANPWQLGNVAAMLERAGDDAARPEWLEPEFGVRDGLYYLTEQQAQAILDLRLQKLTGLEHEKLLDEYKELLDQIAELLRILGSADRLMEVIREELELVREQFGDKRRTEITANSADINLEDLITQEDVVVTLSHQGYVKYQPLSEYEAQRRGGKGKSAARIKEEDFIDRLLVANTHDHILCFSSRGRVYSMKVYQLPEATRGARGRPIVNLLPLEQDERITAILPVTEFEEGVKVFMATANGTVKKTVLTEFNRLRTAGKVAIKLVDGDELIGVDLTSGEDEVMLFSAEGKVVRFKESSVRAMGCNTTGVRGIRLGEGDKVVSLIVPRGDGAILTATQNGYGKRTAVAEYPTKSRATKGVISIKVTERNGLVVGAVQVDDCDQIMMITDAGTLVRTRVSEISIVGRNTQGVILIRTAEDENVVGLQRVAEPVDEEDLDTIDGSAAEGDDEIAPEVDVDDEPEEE

SMILES	MIC [1]	MIC (E. coli BW25113)	MIC [2]	MIC (E. coli DSM1116)	MIC [3]	MIC (Bacillus subtilis DSM 10)	MIC (E. coli)	Rt (retention time) [4]	Gyrase inhibition strong+ / weak − (E. coli DNA gyrase)	CC50 (E. coli DNA gyrase)	GIA: E. coli inhibition +AlbA (E. coli DSM 1116; E. coli DSM 1116, 10 µM compound with equimolar AlbAS)	bioactivity in presence of AlbAS (in words) (E. coli DSM 1116; E. coli, equimolar purified AlbAS)
COc1c(NC(=O)c2ccc(NC(=O)c3ccc(NC(=O)[C@H](Cc4c[nH]nn4)NC(=O)c4ccc(NC(=O)c5ccc([N+](=O)[O-])cn5)cc4)cn3)c(OC)c2O)ccc(C(=O)O)c1O [compound 8]	0.063 µg/mL (≈ 0.0719 µM)	0.125 µg/mL (≈ 0.143 µM)	2 µg/mL (≈ 2.28 µM)	0.063 µg/mL (≈ 0.0719 µM)	0.063 µg/mL (≈ 0.0719 µM)	0.25 µg/mL (≈ 0.285 µM)	8 µg/mL	8.30 min	+			
COc1c(NC(=O)c2ccc(NC(=O)c3ccc(NC(=O)[C@H](Cc4c[nH]nn4)NC(=O)c4ccc(NC(=O)c5ccc6cc(O)ccc6c5)cc4)cn3)c(OC)c2O)ccc(C(=O)O)c1O [compound 10]	0.031 µg/mL (≈ 0.0346 µM)	≤ 0.016 µg/mL	1 µg/mL (≈ 1.12 µM)	0.016 µg/mL (≈ 0.0179 µM)	≤ 0.016 µg/mL	0.063 µg/mL (≈ 0.0703 µM)	2 µg/mL	8.15 min	+	78 nM		
COc1c(NC(=O)c2ccc(NC(=O)c3ccc(NC(=O)[C@H](Cc4cn[nH]n4)NC(=O)c4ccc(NC(=O)/C(C)=C/c5ccc(O)cc5)cc4)cn3)c(OC)c2O)ccc(C(=O)O)c1O [compound 3, reference compound]	0.031 µg/mL (≈ 0.035 µM)	0.016 µg/mL (≈ 0.0181 µM)	0.25 µg/mL (≈ 0.282 µM)	0.016 µg/mL (≈ 0.0181 µM)	0.016 µg/mL (≈ 0.0181 µM)	0.031 µg/mL (≈ 0.035 µM)	0.5 µg/mL	8.15 min	+	66 nM		
COc1c(NC(=O)c2ccc(NC(=O)c3ccc(NC(=O)[C@H](Cc4cn[nH]n4)NC(=O)c4ccc(NC(=O)/C(C)=C/c5ccc(O)cc5)cc4)cc3)c(OC)c2O)ccc(C(=O)O)c1O [compound 2, reference compound]											−	deactivated
COc1c(NC(=O)c2ccc(NC(=O)c3ccc(NC(=O)[C@H](Cc4c[nH]nn4)NC(=O)c4ccc(NC(=O)c5ccc6nccnc6c5)cc4)cn3)c(OC)c2O)ccc(C(=O)O)c1O [compound 15]	0.25 µg/mL (≈ 0.284 µM)	0.031 µg/mL (≈ 0.0352 µM)	2 µg/mL (≈ 2.27 µM)	0.031 µg/mL (≈ 0.0352 µM)		0.125 µg/mL (≈ 0.142 µM)		7.71 min	+			
